Entries after “also recorded” stand apart in the source; their conditions may differ.
What was measured:
[1] = tested on: U937 human leukemic monocyte lymphoma cell line; experiment: Antiproliferative activity to U937 human leukemic monocyte lymphoma cell line; format: cell-based; conditions: for GI50: U-937, U937 human leukemic monocyte lymphoma cell line, read-out: U937 (GI50, Unit: μM); for potency against U937, in words: U937 cell line, comparison with Sorafenib
Description: (§1) The antiproliferative activity of the compounds of Examples to A375P human melanoma cell line and U937 human leukemic monocyte lymphoma cell line are evaluated and listed in the following Table 1.

[2] = tested on: A375P human melanoma cell line; experiment: Antiproliferative activity to A375P human melanoma cell line; format: cell-based; conditions: for GI50: A375P human melanoma cell line, read-out: A375P (GI50, Unit: μM); for potency against A375P, in words: A375P cell line, comparison with Sorafenib
Description: as §1

Row | GI50 [1] | GI50 [2] | Structure (SMILES) | potency against U937, in words [1] | potency against A375P, in words [2]
1 | > 30 µM | 7.45 µM | C[C@H](O)CNc1nccc(-n2ccnc2Cc2cccc(NC(=O)Cc3ccccc3F)c2)n1 [Example 4, (S)-2-(2-fluorophenyl)-N-(3-((1-(2-((2-hydroxypropyl)amino)pyrimidin-4-yl)-1H-imidazol-2-yl)methyl)phenyl)acetamide] |  | 
2 |  | 5.92 µM | C[C@H](O)CNc1nccc(-n2ccnc2C(=O)c2ccc(NC(=O)c3cccc(Cl)c3)cc2)n1 [Example 34, (S)-3-chloro-N-(4-(1-(2-((2-hydroxypropyl)amino)pyrimidin-4-yl)-1H-imidazole-2-carbonyl)phenyl)benzamide] |  | 
3 | 23.6 µM |  | Cc1c(C)c2c(c(C)c1O)CC[C@](C)(C(=O)Nc1cccc(Cc3nccn3-c3ccnc(NC[C@H](C)O)n3)c1)O2 [Example 16, (R)-6-hydroxy-N-(3-((1-(2-(((S)-2-hydroxypropyl)amino)pyrimidin-4-yl)-1H-imidazol-2-yl)methyl)phenyl)-2,5,7,8-tetramethylchromane-2-carboxamide] |  | 
4 |  | 8.92 µM | C[C@H](O)CNc1nccc(-n2ccnc2Cc2cccc(NC(=O)c3ccncc3)c2)n1 [Example 10, (S)—N-(3-((1-(2-((2-hydroxypropyl)amino)pyrimidin-4-yl)-1H-imidazol-2-yl)methyl)phenyl)isonicotinamide] |  | 
5 |  | 7.07 µM | C[C@H](O)CNc1nccc(-n2ccnc2C(=O)c2ccc(NC(=O)c3ccc(Cl)cc3)cc2)n1 [Example 33, (S)-4-chloro-N-(4-(1-(2-((2-hydroxypropyl)amino)pyrimidin-4-yl)-1H-imidazole-2-carbonyl)phenyl)benzamide] |  | 
6 | 16.8 µM |  | Cc1cc(C)cc(C(=O)Nc2cccc(Cc3nccn3-c3ccnc(NC[C@H](C)O)n3)c2)c1 [Example 2, (S)—N-(3-((1-(2-((2-hydroxypropyl)amino)pyrimidin-4-yl)-1H-imidazol-2-yl)methyl)phenyl)-3,5-dimethylbenzamide] |  | 
7 | 3.78 µM | > 30 µM | C[C@H](O)CNc1nccc(-n2ccnc2C(=O)c2cccc(NC(=O)c3cccc(C(F)(F)F)c3)c2)n1 [Example 25, (S)—N-(3-(1-(2-((2-hydroxypropyl)amino)pyrimidin-4-yl)-1H-imidazole-2-carbonyl)phenyl)-3-(trifluoromethyl)benzamide] |  | 
8 | 6.83 µM | 3.3 µM | C[C@H](O)CNc1nccc(-n2ccnc2Cc2cccc(NC(=O)c3ccc(Cl)c(C(F)(F)F)c3)c2)n1 [Example 19, (S)-4-chloro-N-(3-((1-(2-((2-hydroxypropyl)amino)pyrimidin-4-yl)-1H-imidazol-2-yl)methyl)phenyl)-3-(trifluoromethyl)benzamide] | large potencies | large potencies
9 | 15.3 µM | 26.2 µM | C[C@H](O)CNc1nccc(-n2ccnc2Cc2cccc(NC(=O)Nc3ccc(Cl)c(Cl)c3)c2)n1 [Example 22, (S)-1-(3,4-dichlorophenyl)-3-(3-((1-(2-((2-hydroxypropyl)amino)pyrimidin-4-yl)-1H-imidazol-2-yl)methyl)phenyl)urea] |  | 
10 | 2.74 µM | 3.4 µM | CNC(=O)c1cc(Oc2ccc(NC(=O)Nc3ccc(Cl)c(C(F)(F)F)c3)cc2)ccn1 [Sorafenib, reference compound] |  | 
11 | 10 µM | 11.2 µM | C[C@H](O)CNc1nccc(-n2ccnc2Cc2cccc(NC(=O)Cc3ccc(-c4ccccc4)cc3)c2)n1 [Example 11, (S)-2-([1,1′-biphenyl]-4-yl)-N-(3-((1-(2-((2-hydroxypropyl)amino)pyrimidin-4-yl)-1H-imidazol-2-yl)methyl)phenyl)acetamide] |  | 
12 | 9.7 µM | 6.6 µM | C[C@H](O)CNc1nccc(-n2ccnc2Cc2cccc(NC(=O)c3cc(N4CCOCC4)cc(C(F)(F)F)c3)c2)n1 [Example 20, (S)—N-(3-((1-(2-((2-hydroxypropyl)amino)pyrimidin-4-yl)-1H-imidazol-2-yl)methyl)phenyl)-3-morpholino-5-(trifluoromethyl)benzamide] |  | 
13 | 3.24 µM | 3.97 µM | C[C@H](O)CNc1nccc(-n2ccnc2Cc2cccc(NC(=O)C(c3ccc(Cl)cc3)c3ccc(Cl)cc3)c2)n1 [Example 17, (S)-2,2-bis(4-chlorophenyl)-N-(3-((1-(2-(2-hydroxypropylamino)pyrimidin-4-yl)-1H-imidazol-2-yl)methyl)phenyl)acetamide] |  | 
14 | 10 µM |  | C[C@H](O)CNc1nccc(-n2ccnc2Cc2cccc(NC(=O)c3ccccc3Sc3ccccc3C#N)c2)n1 [Example 15, (S)-2-((2-cyanophenyl)thio)-N-(3-((1-(2-((2-hydroxypropyl)amino)pyrimidin-4-yl)-1H-imidazol-2-yl)methyl)phenyl)benzamide] |  | 
15 | 2.55 µM | 9.39 µM | COc1ccc(-c2ccc(C(=O)Nc3cccc(C(=O)c4nccn4-c4ccnc(NC[C@H](C)O)n4)c3)o2)cc1 [Example 26, (S)—N-(3-(1-(2-((2-hydroxypropyl)amino)pyrimidin-4-yl)-1H-imidazole-2-carbonyl)phenyl)-5-(4-methoxyphenyl)furan-2-carboxamide] |  | 
16 | 7.45 µM | > 30 µM | C[C@H](O)CNc1nccc(-n2ccnc2C(=O)c2ccc(NC(=O)Nc3ccc(Cl)c(C(F)(F)F)c3)cc2)n1 [Example 38, (S)-1-(4-chloro-3-(trifluoromethyl)phenyl)-3-(4-(1-(2-((2-hydroxypropyl)amino)pyrimidin-4-yl)-1H-imidazole-2-carbonyl)phenyl)urea] |  | 
17 | 11.6 µM | > 30 µM | C[C@H](O)CNc1nccc(-n2ccnc2C(=O)c2ccc(NC(=O)Nc3ccc(Cl)c(Cl)c3)cc2)n1 [Example 39, (S)-1-(3,4-dichlorophenyl)-3-(4-(1-(2-((2-hydroxypropyl)amino)pyrimidin-4-yl)-1H-imidazole-2-carbonyl)phenyl)urea] |  | 
18 | > 30 µM | 12.3 µM | C[C@H](O)CNc1nccc(-n2ccnc2Cc2cccc(NC(=O)c3cc(N4CCN(C)CC4)cc(C(F)(F)F)c3)c2)n1 [Example 1, (S)—N-(3-((1-(2-((2-hydroxypropyl)amino)pyrimidin-4-yl)-1H-imidazol-2-yl)methyl)phenyl)-3-(4-methylpiperazin-1-yl)-5-(trifluoromethyl)benzamide] |  | 
19 | 1.68 µM | 0.6 µM | C[C@H](O)CNc1nccc(-n2ccnc2Cc2cccc(NC(=O)c3ccc(-c4ccccc4)cc3)c2)n1 [Example 12, (S)—N-(3-((1-(2-((2-hydroxypropyl)amino)pyrimidin-4-yl)-1H-imidazol-2-yl)methyl)phenyl)-[1,1′-biphenyl]-4-carboxamide] | large potencies; also recorded: better potencies than Sorafenib | large potencies; also recorded: better potencies than Sorafenib
20 | 18.5 µM | > 30 µM | C[C@H](O)CNc1nccc(-n2ccnc2Cc2cccc(NC(=O)c3ccc4[nH]nnc4c3)c2)n1 [Example 9, (S)—N-(3-((1-(2-((2-hydroxypropyl)amino)pyrimidin-4-yl)-1H-imidazol-2-yl)methyl)phenyl)-1H-benzo[d][1,2,3]triazole-5-carboxamide] |  | 
21 | 4.9 µM |  | C[C@H](O)CNc1nccc(-n2ccnc2C(=O)c2cccc(NC(=O)c3cc(N4CCOCC4)cc(C(F)(F)F)c3)c2)n1 [Example 27, (S)—N-(3-(1-(2-((2-hydroxypropyl)amino)pyrimidin-4-yl)-1H-imidazole-2-carbonyl)phenyl)-3-morpholino-5-(trifluoromethyl)benzamide] |  | 
22 |  | 27.8 µM | C[C@H](O)CNc1nccc(-n2ccnc2C(=O)c2cccc(NC(=O)c3cc(N4CCN(C)CC4)cc(C(F)(F)F)c3)c2)n1 [Example 28, (S)—N-(3-(1-(2-((2-hydroxypropyl)amino)pyrimidin-4-yl)-1H-imidazole-2-carbonyl)phenyl)-3-(4-methylpiperazin-1-yl)-5-(trifluoromethyl)benzamide] |  | 
23 | > 30 µM | 10.2 µM | C[C@H](O)CNc1nccc(-n2ccnc2Cc2cccc(NC(=O)c3ccc(Cl)cc3)c2)n1 [Example 6, (S)-4-chloro-N-(3-((1-(2-((2-hydroxypropyl)amino)pyrimidin-4-yl)-1H-imidazol-2-yl)methyl)phenyl)benzamide] |  | 
24 | 14.7 µM | > 30 µM | C[C@H](O)CNc1nccc(-n2ccnc2C(=O)c2ccc(NC(=O)c3cc(N4CCN(C)CC4)cc(C(F)(F)F)c3)cc2)n1 [Example 36, (S)—N-(4-(1-(2-((2-hydroxypropyl)amino)pyrimidin-4-yl)-1H-imidazole-2-carbonyl)phenyl)-3-(4-methylpiperazin-1-yl)-5-(trifluoromethyl)benzamide] |  | 
25 | 25.8 µM | 6.39 µM | C[C@H](O)CNc1nccc(-n2ccnc2Cc2cccc(NC(=O)c3cnn(-c4ccccc4)c3C(F)(F)F)c2)n1 [Example 5, (S)—N-(3-((1-(2-((2-hydroxypropyl)amino)pyrimidin-4-yl)-1H-imidazol-2-yl)methyl)phenyl)-1-phenyl-5-(trifluoromethyl)-1H-pyrazole-4-carboxamide] |  | 
26 | 1.73 µM | 19.2 µM | C[C@H](O)CNc1nccc(-n2ccnc2Cc2cccc(NC(=O)Nc3cccc(Cl)c3)c2)n1 [Example 21, (S)-1-(3-chlorophenyl)-3-(3-((1-(2-((2-hydroxypropyl)amino)pyrimidin-4-yl)-1H-imidazol-2-yl)methyl)phenyl)urea] |  | 

Reference: US9540348B2, “Imidazole-1-yl pyrimidine derivatives, or pharmacutically acceptable salt thereof, and pharmaceutic composition comprising the same as an active ingredient” (Industry-University Cooperation Foundation Hanyang …, priority 2015, dated 2017)
